Source: BindingDB's records for doi:10.1128/aac.40.5.1304 (Merck Research Laboratories, 1996)
pIC50: −log10 of the molar value.

Molecular target: Polymerase acidic protein (Influenza A virus (strain A/Puerto Rico/8/1934 H1N1), UniProt P03433)
Experiment: Inhibition of Influenza replication

SMILES | pIC50
O=C(O)C(=O)CC(=O)C1(Cc2ccc(Cl)cc2)CCN(Cc2ccc(Cl)cc2)CC1 | 6.74
O=C(O)C(=O)CC(=O)C1(Cc2ccc(Cl)cc2)CCCN(Cc2ccccc2)C1 (configuration not stated) | 5.80
